# Reference: article PMC7347136 (PLoS ONE, 2020)
# Legend:
# [1] = system: all five cell lines (Cal51, MDA-MB-468, HCC1954, MCF10A, 184A1); test: Standard 72 h viability assay, breast panel; assay type: cell-based; conditions: Homo sapiens
# Procedure: Solid tumor cell lines were seeded in 100 μl medium into 96-well plates at an appropriate cell number determined by a cell dilution assay (Cal51–2000 cells/well; Colo205, MCF10A and 184A1–3000 cells/well and MDA-MB-468, HCC1954–4000 cells/well). AML suspension cells were seeded in 96-well plates at approximately 3000 cells per well. Cells were incubated overnight at 37°C, 5% CO2. The following day, 100 μl fresh medium containing increasing concentrations of appropriate compound was added and the cells were incubated for up to 72 h at 37°C, 5% CO2. For pulse treatment of solid (adherent) tumor cell lines, medium was aspirated and replaced with fresh drug-free medium. For pulse treatment of suspension lines, plates were centrifuged at 478 xg for 5 min at the end of the incubation period with compound, medium containing compound was carefully aspirated and replaced with fresh compound-free medium. A total of 72 h after the start of treatment, 20 μl of a 10X stock of resazurin sodium salt (Sigma-Aldrich, Dorset, UK) prepared in medium was added to the cells and incubated for up to 3 h. […] was measured on the Wallac Victor plate reader (Cambridge, UK) at 544–595 nm. IC50/70/90 calculations were determined in XLFit.
# H23 = test: Resazurin reduction cell viability assay; assay type: cell-based, human; conditions: 6 h pulse
# HIPK1 = target: T1, HIPK1 (Homo sapiens, UniProt Q86Z02); test: Carna kinase panel screen; assay type: biochemical; conditions: read-out: % Inhibition ± SD
# T1 construct: purchased Carna Biosciences
# In short: (§1)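 IC50 determined by fitting percentage inhibition from a 10-point dilution series, run at ATP approximating Km, to a four-parameter logistic curve.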
# EphB2 = target: T2, EphB2 (Homo sapiens, UniProt P29323); test: Carna kinase panel screen; assay type: biochemical; conditions: read-out: % Inhibition ± SD
# T2 construct: purchased Carna Biosciences
# In short: as §1
# MAP3K5 = target: T3, MAP3K5 (Homo sapiens, UniProt Q99683); test: Carna kinase panel screen; assay type: biochemical; conditions: read-out: % Inhibition ± SD
# T3 construct: purchased Carna Biosciences
# In short: as §1
# PKCi = target: T4, PKCi (Homo sapiens, UniProt P41743); test: Carna kinase panel screen; assay type: biochemical; conditions: read-out: % Inhibition ± SD
# T4 construct: purchased Carna Biosciences
# In short: as §1
# KDR = target: T5, KDR (Homo sapiens, UniProt P35968); test: Carna kinase panel screen; assay type: biochemical; conditions: read-out: % Inhibition ± SD
# T5 construct: purchased Carna Biosciences
# In short: as §1
# CDC7 = target: T6, CDC7 (Homo sapiens, UniProt O00311); test: Carna kinase panel screen; assay type: biochemical; conditions: read-out: % Inhibition ± SD
# T6 construct: purchased Carna Biosciences
# In short: as §1
# CaMK2g = target: T7, CaMK2g (Homo sapiens, UniProt Q13555); test: Carna kinase panel screen; assay type: biochemical; conditions: read-out: % Inhibition ± SD
# T7 construct: purchased Carna Biosciences
# In short: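 10-pt curves; [ATP] ~Km; IC50 by 4PL fit of % inhibition.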
# CDK3 = target: T8, CDK3 (Homo sapiens, UniProt Q00526); test: Carna kinase panel screen; assay type: biochemical; conditions: read-out: % Inhibition ± SD
# T8 construct: purchased Carna Biosciences
# In short: as §1
# HER2 = target: T9, HER2 (Homo sapiens, UniProt P04626); test: Carna kinase panel screen; assay type: biochemical; conditions: read-out: % Inhibition ± SD
# T9 construct: purchased Carna Biosciences
# In short: as §1
# PYK2 = target: T10, PYK2 (Homo sapiens, UniProt Q14289); test: Carna kinase panel screen; assay type: biochemical; conditions: read-out: % Inhibition ± SD
# T10 construct: purchased Carna Biosciences
# In short: as §1
# FAK = target: T11, FAK (Homo sapiens, UniProt Q05397); test: Carna kinase panel screen; assay type: biochemical; conditions: read-out: % Inhibition ± SD
# T11 construct: purchased Carna Biosciences
# In short: as §1
# IRAK4 = target: T12, IRAK4 (Homo sapiens, UniProt Q9NWZ3); test: Carna kinase panel screen; assay type: biochemical; conditions: read-out: % Inhibition ± SD
# T12 construct: purchased Carna Biosciences
# In short: as §1
# TBK1 = target: T13, TBK1 (Homo sapiens, UniProt Q9UHD2); test: Carna kinase panel screen; assay type: biochemical; conditions: read-out: % Inhibition ± SD
# T13 construct: purchased Carna Biosciences
# In short: as §1
# BRSK2 = target: T14, BRSK2 (Homo sapiens, UniProt Q8IWQ3); test: Carna kinase panel screen; assay type: biochemical; conditions: read-out: % Inhibition ± SD
# T14 construct: purchased Carna Biosciences
# In short: as §1
# WEE1 = target: T15, WEE1 (Homo sapiens, UniProt P30291); test: Carna kinase panel screen; assay type: biochemical; conditions: read-out: % Inhibition ± SD
# T15 construct: purchased Carna Biosciences
# In short: as §1
# TNK1 = target: T16, TNK1 (Homo sapiens, UniProt Q13470); test: Carna kinase panel screen; assay type: biochemical; conditions: read-out: % Inhibition ± SD
# T16 construct: purchased Carna Biosciences
# In short: as §1
# EGFR[L858R] = target: T17, EGFR[L858R] (Homo sapiens, UniProt P00533, L858R); test: Carna kinase panel screen; assay type: biochemical; conditions: read-out: % Inhibition ± SD
# T17 construct: purchased Carna Biosciences
# In short: as §1
# AurB = target: T18, AurB (Homo sapiens, UniProt Q96GD4); test: Carna kinase panel screen; assay type: biochemical; conditions: read-out: % Inhibition ± SD
# T18 construct: purchased Carna Biosciences
# In short: as §1
# CK2a1 = target: T19, CK2a1 (Homo sapiens, UniProt P68400); test: Carna kinase panel screen; assay type: biochemical; conditions: read-out: % Inhibition ± SD
# T19 construct: purchased Carna Biosciences
# In short: as §1
# MSK1 = target: T20, MSK1 (Homo sapiens, UniProt O75582); test: Carna kinase panel screen; assay type: biochemical; conditions: read-out: % Inhibition ± SD
# T20 construct: purchased Carna Biosciences
# In short: as §1
# CDK2 = target: T21, CDK2 (Homo sapiens, UniProt P24941); test: Carna kinase panel screen; assay type: biochemical; conditions: read-out: % Inhibition ± SD
# T21 construct: purchased Carna Biosciences
# In short: as §1
# DLK = target: T22, DLK (Homo sapiens, UniProt Q12852); test: Carna kinase panel screen; assay type: biochemical; conditions: read-out: % Inhibition ± SD
# T22 construct: purchased Carna Biosciences
# In short: as §1
# JNK3 = target: T23, JNK3 (Homo sapiens, UniProt P53779); test: Carna kinase panel screen; assay type: biochemical; conditions: read-out: % Inhibition ± SD
# T23 construct: purchased Carna Biosciences
# In short: as §1
# [2] = system: subcutaneous EOL-1 tumors; test: EOL-1 human eosinophilic leukemia xenograft model; assay type: in vivo, SCID mice; conditions: for tumor growth inhibition (TGI): Day 19; for median TGI: day 9
# Procedure: Female athymic CB-17 SCID (Harlan Sprague-Dawley) mice between 6–7 weeks of age weighing approximately 22 grams were housed in a 12-h light-dark cycle at 70–74°F (21–23°C) and 40–60% humidity. Animals were fed water ad libitum (reverse osmosis, 2 ppm Cl2) and an irradiated standard rodent diet (Teklad 2919) consisting of 19% protein, 9% fat, and 4% fiber. Mice were injected subcutaneously into the right flank with 1x10^7 EOL-1 cells in 100 μl of a 1:1 HBSS:Matrigel solution. When tumors reached approximately 125–250 mm^3, animals were matched by tumor volume and then randomized into treatment and control groups before dosing was initiated. […] Cytarabine, also known as cytosine arabinoside (AraC), was administered by daily ip injection for 5 days only. Agent toxicity was assessed by effects on body weight and clinical signs. Animals were weighed twice weekly using a digital scale (Ohaus SP601). Beginning on Day 0, tumor dimensions were measured twice weekly by digital caliper (Fowler Ultra-Cal IV); tumor volume was calculated using the formula TV = width^2 x length x 0.52. […] Statistical differences in tumor volume were determined using a two-tailed One-Way Analysis of Variance (ANOVA) followed by the Dunnett’s multiple comparisons test comparing treated groups with control. For animal welfare the following methods were used: (a) methods of sacrifice: isoflurane anesthesia followed by cervical dislocation; (b) methods of anesthesia and/or analgesia: isoflurane anesthesia and (c) efforts to alleviate suffering: carprofen if animal veterinarian decides necessary or euthanasia.
# [3] = 40 mg/kg oral qd x 5 for 2 weeks
# [4] = 55 mg/kg oral qd x 5 for 2 weeks
# T16 sequence (Q13470 whole entry): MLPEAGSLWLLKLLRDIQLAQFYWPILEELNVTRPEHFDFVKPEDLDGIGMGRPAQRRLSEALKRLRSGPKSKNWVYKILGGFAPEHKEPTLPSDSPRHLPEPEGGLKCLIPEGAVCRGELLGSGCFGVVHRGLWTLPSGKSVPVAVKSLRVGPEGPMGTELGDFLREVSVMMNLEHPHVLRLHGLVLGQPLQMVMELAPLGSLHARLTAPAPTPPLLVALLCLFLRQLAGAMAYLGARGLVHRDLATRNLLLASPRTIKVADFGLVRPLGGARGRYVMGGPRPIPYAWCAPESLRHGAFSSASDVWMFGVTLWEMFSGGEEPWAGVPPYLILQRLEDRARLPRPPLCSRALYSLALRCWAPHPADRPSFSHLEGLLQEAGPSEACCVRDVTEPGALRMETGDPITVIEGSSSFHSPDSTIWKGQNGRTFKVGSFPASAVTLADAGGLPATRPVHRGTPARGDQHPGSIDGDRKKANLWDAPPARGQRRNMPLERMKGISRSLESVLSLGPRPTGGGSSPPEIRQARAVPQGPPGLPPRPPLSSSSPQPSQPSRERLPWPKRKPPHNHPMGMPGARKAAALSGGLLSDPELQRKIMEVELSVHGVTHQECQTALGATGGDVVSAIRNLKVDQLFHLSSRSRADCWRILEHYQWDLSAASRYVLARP
# T18 sequence (Q96GD4 whole entry): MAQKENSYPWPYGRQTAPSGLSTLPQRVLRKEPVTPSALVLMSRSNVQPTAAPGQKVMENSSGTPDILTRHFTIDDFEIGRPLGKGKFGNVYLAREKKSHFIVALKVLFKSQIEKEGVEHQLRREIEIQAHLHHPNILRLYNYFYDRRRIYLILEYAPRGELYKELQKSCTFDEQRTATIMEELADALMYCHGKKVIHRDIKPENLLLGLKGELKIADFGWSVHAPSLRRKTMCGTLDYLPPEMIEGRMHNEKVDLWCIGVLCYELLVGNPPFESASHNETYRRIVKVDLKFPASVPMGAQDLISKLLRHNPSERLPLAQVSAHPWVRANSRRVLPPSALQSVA
# T6 sequence (O00311 whole entry): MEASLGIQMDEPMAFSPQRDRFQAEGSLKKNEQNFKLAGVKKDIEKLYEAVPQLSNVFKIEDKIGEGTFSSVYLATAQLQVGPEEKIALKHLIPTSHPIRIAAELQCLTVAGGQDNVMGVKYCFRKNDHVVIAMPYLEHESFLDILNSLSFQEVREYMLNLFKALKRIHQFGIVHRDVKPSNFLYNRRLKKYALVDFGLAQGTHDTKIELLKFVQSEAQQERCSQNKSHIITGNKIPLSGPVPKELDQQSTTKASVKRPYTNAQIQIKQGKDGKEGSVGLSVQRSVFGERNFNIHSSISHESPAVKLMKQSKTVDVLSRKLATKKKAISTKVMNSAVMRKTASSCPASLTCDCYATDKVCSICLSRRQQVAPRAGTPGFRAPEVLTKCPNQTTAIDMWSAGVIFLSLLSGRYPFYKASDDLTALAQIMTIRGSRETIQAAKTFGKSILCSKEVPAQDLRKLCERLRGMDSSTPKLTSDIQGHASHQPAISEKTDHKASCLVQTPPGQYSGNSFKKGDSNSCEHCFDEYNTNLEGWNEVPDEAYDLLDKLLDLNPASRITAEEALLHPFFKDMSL
# T6 sequence (Q9UBU7 whole entry partner): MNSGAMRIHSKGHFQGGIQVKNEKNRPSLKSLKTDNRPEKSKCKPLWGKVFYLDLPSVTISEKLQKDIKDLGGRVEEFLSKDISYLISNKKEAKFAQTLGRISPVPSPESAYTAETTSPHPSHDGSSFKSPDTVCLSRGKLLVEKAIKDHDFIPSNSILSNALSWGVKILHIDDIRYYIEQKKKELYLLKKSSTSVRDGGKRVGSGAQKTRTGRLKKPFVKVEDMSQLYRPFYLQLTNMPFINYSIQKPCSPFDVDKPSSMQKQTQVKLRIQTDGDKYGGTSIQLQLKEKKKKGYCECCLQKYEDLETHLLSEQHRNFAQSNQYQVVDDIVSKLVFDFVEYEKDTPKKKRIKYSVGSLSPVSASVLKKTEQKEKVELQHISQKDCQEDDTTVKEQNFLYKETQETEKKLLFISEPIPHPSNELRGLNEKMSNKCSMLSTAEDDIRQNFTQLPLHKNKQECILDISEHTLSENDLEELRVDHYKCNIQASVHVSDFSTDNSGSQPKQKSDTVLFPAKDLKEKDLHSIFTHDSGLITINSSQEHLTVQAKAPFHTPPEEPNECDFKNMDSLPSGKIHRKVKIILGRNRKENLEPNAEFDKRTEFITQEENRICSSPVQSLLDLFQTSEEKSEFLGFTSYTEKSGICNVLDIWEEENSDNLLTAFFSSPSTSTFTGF
# T1 sequence (Q86Z02 whole entry): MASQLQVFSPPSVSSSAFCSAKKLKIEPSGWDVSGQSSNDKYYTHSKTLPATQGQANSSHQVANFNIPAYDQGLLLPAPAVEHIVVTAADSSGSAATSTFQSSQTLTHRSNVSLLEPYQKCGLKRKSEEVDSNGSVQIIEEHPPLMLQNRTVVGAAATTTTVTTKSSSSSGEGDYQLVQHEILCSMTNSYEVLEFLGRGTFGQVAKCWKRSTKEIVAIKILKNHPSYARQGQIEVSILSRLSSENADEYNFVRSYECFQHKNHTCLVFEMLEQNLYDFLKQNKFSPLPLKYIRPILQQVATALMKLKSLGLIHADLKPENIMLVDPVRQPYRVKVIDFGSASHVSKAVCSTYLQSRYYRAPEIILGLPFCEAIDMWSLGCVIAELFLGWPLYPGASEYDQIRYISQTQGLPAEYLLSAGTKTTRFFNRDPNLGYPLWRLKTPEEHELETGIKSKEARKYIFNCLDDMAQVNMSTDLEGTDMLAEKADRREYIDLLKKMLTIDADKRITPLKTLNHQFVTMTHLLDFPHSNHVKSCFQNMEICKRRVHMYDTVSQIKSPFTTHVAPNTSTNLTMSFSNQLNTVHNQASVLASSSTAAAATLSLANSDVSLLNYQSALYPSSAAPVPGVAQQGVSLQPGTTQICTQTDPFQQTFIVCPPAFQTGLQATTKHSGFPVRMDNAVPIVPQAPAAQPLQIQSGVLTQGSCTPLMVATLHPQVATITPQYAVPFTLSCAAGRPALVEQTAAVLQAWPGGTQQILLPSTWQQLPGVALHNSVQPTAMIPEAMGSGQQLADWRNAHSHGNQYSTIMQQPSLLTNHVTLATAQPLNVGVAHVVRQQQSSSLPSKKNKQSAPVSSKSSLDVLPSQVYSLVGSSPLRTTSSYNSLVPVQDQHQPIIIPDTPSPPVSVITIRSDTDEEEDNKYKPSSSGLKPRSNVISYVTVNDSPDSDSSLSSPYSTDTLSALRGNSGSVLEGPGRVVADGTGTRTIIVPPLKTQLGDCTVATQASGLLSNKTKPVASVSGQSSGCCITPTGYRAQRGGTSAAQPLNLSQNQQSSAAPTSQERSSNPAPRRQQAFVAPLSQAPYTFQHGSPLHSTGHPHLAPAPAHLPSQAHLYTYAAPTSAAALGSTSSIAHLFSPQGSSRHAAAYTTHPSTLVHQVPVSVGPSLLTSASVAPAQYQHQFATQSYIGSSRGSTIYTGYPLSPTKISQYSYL
# T14 sequence (Q8IWQ3 whole entry): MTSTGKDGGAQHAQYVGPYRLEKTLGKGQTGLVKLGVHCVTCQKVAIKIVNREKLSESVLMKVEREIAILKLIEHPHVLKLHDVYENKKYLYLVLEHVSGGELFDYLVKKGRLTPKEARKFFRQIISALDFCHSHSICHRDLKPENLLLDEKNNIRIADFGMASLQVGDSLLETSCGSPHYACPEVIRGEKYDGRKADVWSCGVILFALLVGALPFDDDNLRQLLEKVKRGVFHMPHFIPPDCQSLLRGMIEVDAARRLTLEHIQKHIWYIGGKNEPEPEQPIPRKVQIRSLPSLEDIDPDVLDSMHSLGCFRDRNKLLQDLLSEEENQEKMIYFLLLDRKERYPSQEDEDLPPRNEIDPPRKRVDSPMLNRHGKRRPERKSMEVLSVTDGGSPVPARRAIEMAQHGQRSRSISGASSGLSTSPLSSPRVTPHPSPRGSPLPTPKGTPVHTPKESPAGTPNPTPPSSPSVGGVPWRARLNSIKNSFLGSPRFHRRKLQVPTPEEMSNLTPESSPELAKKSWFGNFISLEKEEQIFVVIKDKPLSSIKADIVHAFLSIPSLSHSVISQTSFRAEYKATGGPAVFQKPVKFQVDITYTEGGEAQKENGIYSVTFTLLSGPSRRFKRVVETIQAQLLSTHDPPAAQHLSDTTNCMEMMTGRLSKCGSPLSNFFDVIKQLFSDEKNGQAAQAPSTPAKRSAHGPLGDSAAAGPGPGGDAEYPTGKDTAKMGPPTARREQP
# T12 sequence (Q9NWZ3 whole entry): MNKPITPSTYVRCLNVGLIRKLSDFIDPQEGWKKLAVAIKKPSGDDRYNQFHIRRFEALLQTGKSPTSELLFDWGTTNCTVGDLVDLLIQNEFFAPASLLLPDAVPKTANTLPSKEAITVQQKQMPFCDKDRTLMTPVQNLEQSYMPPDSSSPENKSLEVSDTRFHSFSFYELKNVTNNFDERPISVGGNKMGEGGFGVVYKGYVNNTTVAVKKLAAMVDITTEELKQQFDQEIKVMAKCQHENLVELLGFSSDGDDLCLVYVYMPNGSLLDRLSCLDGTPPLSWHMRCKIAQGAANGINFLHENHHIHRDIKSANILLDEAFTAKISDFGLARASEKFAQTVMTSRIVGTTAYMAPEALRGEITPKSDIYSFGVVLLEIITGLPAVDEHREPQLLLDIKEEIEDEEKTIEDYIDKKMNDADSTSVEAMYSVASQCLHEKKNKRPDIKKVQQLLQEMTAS
compound,measurement,setting,value
"CC[C@H](Nc1nc(NCc2cnc(C)cc2C)c2ncn(C(C)C)c2n1)[C@@H](C)O [Fadraciclib, 2-pentanol, 3-[[6-[[(4,6-dimethyl-3-pyridinyl)methyl]amino]-9-(1-methylethyl)-9Hpurin-2-yl]amino]-, (2R,3S)]",IC50,[1],≤ 400 nM
same,"IC50, short pulse",H23,submicromolar
same,inhibition at 1 µM,HIPK1,6.8 ± 0.3%
same,inhibition at 1 µM,EphB2,5 ± 0.2%
same,inhibition at 1 µM,MAP3K5,5.2 ± 0.2%
same,inhibition at 1 µM,PKCi,-13.6 ± 0.5%
same,inhibition at 1 µM,KDR,-12.8 ± 0.1%
same,inhibition at 1 µM,CDC7,-5.7%
same,inhibition at 1 µM,CaMK2g,12.5 ± 0.4%
same,inhibition at 1 µM,CDK3,95.9%
same,inhibition at 1 µM,HER2,-17.6 ± 1%
same,inhibition at 1 µM,PYK2,11.7 ± 0.2%
same,inhibition at 1 µM,FAK,23.4 ± 2.9%
same,inhibition at 1 µM,IRAK4,-10.1 ± 0.1%
same,inhibition at 1 µM,TBK1,-4.8 ± 0.1%
same,inhibition at 1 µM,BRSK2,1.1%
same,inhibition at 1 µM,WEE1,35.1 ± 0.1%
same,inhibition at 1 µM,TNK1,-0.2 ± 0.2%
same,inhibition at 1 µM,EGFR[L858R],1.7%
same,inhibition at 1 µM,AurB,4.2 ± 0.2%
same,inhibition at 1 µM,CK2a1,-22.8 ± 0.7%
same,inhibition at 1 µM,MSK1,5.5 ± 0.4%
same,inhibition at 1 µM,CDK2,97.3%
same,inhibition at 1 µM,DLK,0.8%
same,inhibition at 1 µM,JNK3,10.6 ± 0.6%
same,tumor growth inhibition (TGI),[2]; [3],97%
same,median TGI,[2]; [3],95%
same,transient body weight loss,[2]; 55 mg/kg oral,2%
same,tumor growth inhibition (TGI),[2]; [4],100%
same,median TGI,[2]; [4],97%
